# Laboratory results as given in patent US4016159A, “Acylamino-cephem-carboxylic acids containing an amidino or guanidino group in the molecule” (Hoechst Aktiengesellschaft, priority 1973, dated 1977).
# Assays:
# Assay type in all cases: cell-based
# [1] = tested on: Staphylococcus aureus SG 511; test: Minimum inhibition concentration (MIC), Table 5; conditions: Staphylococcus aureus, SG511, Germ: Staphylococcus aureus SG 511; read-out: Minimum inhibition concentration (MIC)
# Description: (§1) Minimum inhibition concentration (MIC) in γ/ml
# Germ: Staphylococcus aureus SG 511
# [2] = tested on: Proteus mirabilis; test: Minimum inhibition concentration (MIC), Table 2; conditions: Germ: Proteus mirabilis; read-out: Minimum inhibition concentration (MIC)
# Description: Minimum inhibition concentration (MIC) in /ml
# [3] = tested on: Streptococcus pyogenes A; test: Minimum inhibition concentration (MIC), Table 3; conditions: Germ: Streptococcus pyogenes A; read-out: Minimum inhibition concentration MIC
# Description: Minimum inhibition concentration MIC in γ/ml
# Germ: Streptococcus pyogenes A
# [4] = tested on: Streptococcus D; test: Minimum inhibition concentration (MIC), Table 4; conditions: Streptococcus, Germ: Streptococcus D; read-out: Minimum inhibition concentration (MIC)
# Description: as §1
# [5] = tested on: Staphylococcus aureus 285; test: Minimum inhibition concentration (MIC), Table 1; conditions: Staphylococcus aureus, 285, Germ: Staphylococcus aureus 285; read-out: Minimum inhibition concentration (MIC)
# Description: as §1
# Germ: Staphylococcus aureus 285
MIC [1] [µg/mL],MIC [2] [µg/mL],MIC [3] [µg/mL],MIC [4] [µg/mL],MIC [5] [µg/mL],Compound
0.0196 to 0.0391,25,0.000391 to 0.0078,10 to 50,0.156 to 0.391,"CCc1nnc(SCC2=C(C(=O)O)N3C(=O)C(NC(=O)Cc4ccc(C5=NCCCN5)cc4)C3SC2)s1 (stereo not shown) [Example 121, 3-[(5-ethyl-1,3,4-thiadiazole-2-yl)-thiomethyl]-7-[4-(1,4,5,6-tetrahydropyrimide-2-yl)-phenylacetamido]-Δ3-cephem-4-carboxylic acid]"
0.0196 to 0.0391,3.1 to 12.5,0.000391 to 0.0078,10 to 50,0.156 to 0.391,"N=C(N)c1ccc(CC(=O)NC2C(=O)N3C(C(=O)O)=C(CSc4nncs4)CSC23)cc1 (stereo not shown) [Example 1, 3-[(1,3,4-thiadiazole-2-yl)-thiomethyl]-7-(4-amidino-phenylacetamido)-Δ3-cephem-4-carboxylic acid]"
0.0625 to 0.078,25,0.000391 to 0.0078,10 to 50,0.156 to 0.391,"CCCCc1nnc(SCC2=C(C(=O)O)N3C(=O)C(NC(=O)Cc4ccc(C(=N)N)cc4)C3SC2)s1 (stereo not shown) [Example 55, 3-[(5-n-butyl-1,3,4-thiadiazole-2-yl)-thiomethyl]-7-(4-amidinophenylacetamido)-Δ 3-cephem-4-carboxylic acid]"
0.0196 to 0.0391,25,0.000391 to 0.0078,10 to 50,0.5 to 1.25,"N=C(N)Nc1ccc(CC(=O)NC2C(=O)N3C(C(=O)O)=C(CSc4nncs4)CSC23)cc1 (stereo not shown) [Example 9, 3-[(1,3,4-thiadiazole-2-yl)-thiomethyl]-7-(4-guanidino-phenylacetamido)-Δ3-cephem-4-carboxylic acid]"
0.0625 to 0.078,3.1 to 12.5,0.008 to 0.0156,10 to 50,0.156 to 0.391,"N=C(N)c1ccc(CC(=O)NC2C(=O)N3C(C(=O)O)=C(CSc4nncs4)CSC23)s1 (stereo not shown) [Example 3, 3-[(1,3,4-thiadiazole-2-yl)-thiomethyl]-7-(5-amidinothienyl-acetamido)-Δ3-cephem-4-ccarboxylic acid]"
0.0625 to 0.078,3.1 to 12.5,0.000391 to 0.0078,0.196 to 6.25,0.156 to 0.391,"O=C(Cc1ccc(C2=NCCN2)cc1)NC1C(=O)N2C(C(=O)O)=C(CSc3nncs3)CSC12 (stereo not shown) [Example 70, 3-[(1,3,4-thiadiazole-2-yl)-thiomethyl]-7-[4-(imidazoline-2-yl)phenylacetamido]-Δ 3-cephem-4-carboxylic acid]"
0.0625 to 0.078,25,0.000391 to 0.0078,0.196 to 6.25,0.5 to 1.25,CCCc1nnc(SCC2=C(C(=O)O)N3C(=O)C(NC(=O)Cc4ccc(C5=NCCN5)cc4)C3SC2)s1 (stereo not shown) [Example 53]
0.0196 to 0.0391,3.1 to 12.5,0.008 to 0.0156,10 to 50,0.156 to 0.391,"Cc1nnc(SCC2=C(C(=O)O)N3C(=O)C(NC(=O)Cc4ccc(NC(=N)N)cc4)C3SC2)s1 (stereo not shown) [Example 6, 3-[(5-methyl-1,3,4-thiadiazole-2-yl)-thiomethyl]-7-(4-guanidino-phenylacetamido)-Δ3-cephem-4-carboxylic acid]"
0.0196 to 0.0391,25,0.000391 to 0.0078,10 to 50,0.156 to 0.391,"N=C(N)c1ccc(CC(=O)NC2C(=O)N3C(C(=O)O)=C(CSc4nccs4)CSC23)cc1 (stereo not shown) [Example 4, 3-[(thiazole-2-yl)-thiomethyl]-7-(4-amidino-phenylacetamido)-Δ3-cephem-4-carboxylic acid]"
0.0625 to 0.078,3.1 to 12.5,0.000391 to 0.0078,10 to 50,0.5 to 1.25,"Cc1nnc(SCC2=C(C(=O)O)N3C(=O)C(NC(=O)Cc4ccc(C(=N)N)cc4)C3SC2)o1 (stereo not shown) [Example 60, 3-[(5-methyl-1,3,4-oxadiazole-2-yl)-thiomethyl]-7-(4-amidinophenylacetamido)-Δ 3-cephem-4-carboxylic acid]"
0.0196 to 0.0391,3.1 to 12.5,0.000391 to 0.0078,10 to 50,0.156 to 0.391,CCc1nnc(SCC2=C(C(=O)O)N3C(=O)C(NC(=O)Cc4ccc(C5=NCCN5)cc4)C3SC2)s1 (stereo not shown) [Example 120]
